Results taken from patent publication US20240109918A1, “HETEROCYCLIC COMPOUNDS AND USES THEREOF” (Kumquat Biosciences Inc., priority 2022, published 2024).
pIC50: −log10 of the molar value.

Tests used:
KRASwt = target: T1, KRASwt (Homo sapiens, UniProt P01116); experiment: Bio-Biochem-PPI-HTRF Ras-SOS1 interaction assay (KRAS wt); assay type: biochemical; conditions: 5 nM
T1 construct: made in house; host or cells: E. coli BL21 (DE3)
Outline: (§1)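 HTRF measurement of GST-K-Ras (wt or G12D) binding to His-hSOS1, via anti-GST-Eu(K) donor and anti-6His-XL665 acceptor, in HEPES pH 7.4 buffer with NaCl, DTT, BSA and Igepal. Read after ≥10 min; compounds in duplicate from 10 μM down to 0.01 μM. IC50 from 665/620 nm ratio.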

KRASG12D = target: T2, KRASG12D (Homo sapiens, UniProt P01116, G12D); experiment: Bio-Biochem-PPI-HTRF Ras-SOS1 interaction assay (KRAS G12D); assay type: biochemical; conditions: 5 nM
T2 construct: made in house; host or cells: E. coli BL21 (DE3)
T2 sequence (P01116 1-188 isoform P01116-2 G12D): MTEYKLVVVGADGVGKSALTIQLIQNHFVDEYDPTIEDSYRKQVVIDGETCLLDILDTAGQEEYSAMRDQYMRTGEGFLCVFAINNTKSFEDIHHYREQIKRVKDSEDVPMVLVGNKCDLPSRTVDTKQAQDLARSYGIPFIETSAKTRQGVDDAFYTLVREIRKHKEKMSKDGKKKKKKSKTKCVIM
Outline: as §1

T1 sequence (P01116 1-188 isoform P01116-2): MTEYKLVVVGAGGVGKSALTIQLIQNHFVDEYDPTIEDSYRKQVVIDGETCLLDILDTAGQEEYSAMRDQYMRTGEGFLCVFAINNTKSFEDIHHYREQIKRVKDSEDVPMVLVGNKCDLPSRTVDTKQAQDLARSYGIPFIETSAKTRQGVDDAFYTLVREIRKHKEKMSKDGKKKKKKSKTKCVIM

SMILES	pIC50 (KRASwt)	pIC50 (KRASG12D)
C#Cc1c(F)ccc2cc(O)cc(-c3ncc4c(N5CCOCC6(CN(C(=O)[C@H]7CC7(F)F)C6)C5)nc(OC[C@@]56CCCN5C[C@H](F)C6)nc4c3F)c12 [compound 316, ((R)-2,2-difluorocyclopropyl) (9-(7-(8-ethynyl-7-fluoro-3-hydroxynaphthalen-1-yl)-8-fluoro-2-(((2R,7aS)-2-fluorotetrahydro-1H-pyrrolizin-7a(5H)-yl)methoxy)pyrido[4,3-d]pyrimidin-4-yl)-6-oxa-2,9-diazaspiro[3.6]decan-2-yl)methanone]	> 5.30	> 5.30
N#Cc1c(N)sc2c(F)ccc(-c3c(Cl)cc4c(N5CCCCC6(CN(C(=O)c7ccnn7CC(F)F)C6)C5)nc(OC[C@@]56CCCN5C[C@H](F)C6)nc4c3F)c12 [compound 208, 2-amino-4-(6-chloro-4-(2-(1-(2,2-difluoroethyl)-1H-pyrazole-5-carbonyl)-2,6-diazaspiro[3.6]decan-6-yl)-8-fluoro-2-(((2R,7aS)-2-fluorotetrahydro-1H-pyrrolizin-7a(5H)-yl)methoxy)quinazolin-7-yl)-7-fluorobenzo[b]thiophene-3-carbonitrile]	> 5.30	> 5.30
N#Cc1c(N)sc2c(F)ccc(-c3c(Cl)cc4c(N5CCCCC6(CN(C(=O)COC(F)(F)C(F)(F)F)C6)C5)nc(OC[C@@]56CCCN5C[C@H](F)C6)nc4c3F)c12 [compound 302, 2-amino-4-(6-chloro-8-fluoro-2-(((2R,7aS)-2-fluorotetrahydro-1H-pyrrolizin-7a(5H)-yl)methoxy)-4-(2-(2-(perfluoroethoxy)acetyl)-2,6-diazaspiro[3.6]decan-6-yl)quinazolin-7-yl)-7-fluorobenzo[b]thiophene-3-carbonitrile]	> 5.30	> 5.30
Nc1nc2c(-c3c(Cl)cc4c(N5CCC6(CC5)CN(C(=O)C(F)(F)F)C6)nc(OC[C@@]56CCCN5C[C@H](F)C6)nc4c3F)ccc(F)c2s1 [compound 168, 1-(7-(7-(2-amino-7-fluorobenzo[d]thiazol-4-yl)-6-chloro-8-fluoro-2-(((2R,7aS)-2-fluorotetrahydro-1H-pyrrolizin-7a(5H)-yl)methoxy)quinazolin-4-yl)-2,7-diazaspiro[3.5]nonan-2-yl)-2,2,2-trifluoroethan-1-one]	> 5.30	≤ 5.30
N#Cc1c(N)sc2c(F)ccc(-c3c(Cl)cc4c(N5CCCCC6(CN(C(=O)C7CC8(C7)CC8(F)F)C6)C5)nc(OC[C@@]56CCCN5C[C@H](F)C6)nc4c3F)c12 (stereo partly drawn) [compound 309, 2-amino-4-(6-chloro-4-(2-(1,1-difluorospiro[2.3]hexane-5-carbonyl)-2,6-diazaspiro[3.6]decan-6-yl)-8-fluoro-2-(((2R,7aS)-2-fluorotetrahydro-1H-pyrrolizin-7a(5H)-yl)methoxy)quinazolin-7-yl)-7-fluorobenzo[b]thiophene-3-carbonitrile]	> 5.30	> 5.30
N#Cc1c(N)sc2c(F)ccc(-c3c(Cl)cc4c(N5CCC(F)(F)CC6(CN(C(=O)[C@@H]7C[C@H]7C#N)C6)C5)nc(OC[C@@]56CCCN5C[C@H](F)C6)nc4c3F)c12 [compound 342, 2-amino-4-(6-chloro-4-(2-((1R,2R)-2-cyanocyclopropane-1-carbonyl)-9,9-difluoro-2,6-diazaspiro[3.6]decan-6-yl)-8-fluoro-2-(((2R,7aS)-2-fluorotetrahydro-1H-pyrrolizin-7a(5H)-yl)methoxy)quinazolin-7-yl)-7-fluorobenzo[b]thiophene-3-carbonitrile]	> 5.30	> 5.30
N#Cc1c(N)sc2c(F)ccc(-c3c(Cl)cc4c(N5CCC(F)(F)CC6(CN(C(=O)[C@@H]7CC7(F)F)C6)C5)nc(OC[C@@]56CCCN5C[C@H](F)C6)nc4c3F)c12 [compound 290, 2-amino-4-(6-chloro-4-(2-((S)-2,2-difluorocyclopropane-1-carbonyl)-9,9-difluoro-2,6-diazaspiro [3.6]decan-6-yl)-8-fluoro-2-(((2R,7aS)-2-fluorotetrahydro-1H-pyrrolizin-7a(5H)-yl)methoxy)quinazolin-7-yl)-7-fluorobenzo[b]thiophene-3-carbonitrile]	> 5.30	> 5.30
N#Cc1c(N)sc2c(F)ccc(-c3c(Cl)cc4c(N5CCCCC6(CN(C(=O)C78COCC7C8)C6)C5)nc(OC[C@@]56CCCN5C[C@H](F)C6)nc4c3F)c12 (stereo partly drawn) [compound 333, 4-(4-(2-(3-oxabicyclo[3.1.0]hexane-1-carbonyl)-2,6-diazaspiro [3.6]decan-6-yl)-6-chloro-8-fluoro-2-(((2R,7aS)-2-fluorotetrahydro-1H-pyrrolizin-7a(5H)-yl)methoxy)quinazolin-7-yl)-2-amino-7-fluorobenzo[b]thiophene-3-carbonitrile]	> 5.30	> 5.30

Next, values leading:

pIC50 (KRASwt)	pIC50 (KRASG12D)	SMILES
> 5.30	> 5.30	C#Cc1c(F)ccc2cc(O)cc(-c3ncc4c(N5CCCCC6(CN(C(=O)C(F)F)C6)C5)nc(OC[C@@]56CCCN5C[C@H](F)C6)nc4c3F)c12 [compound 344, 1-(6-(7-(8-ethynyl-7-fluoro-3-hydroxynaphthalen-1-yl)-8-fluoro-2-(((2R,7aS)-2-fluorotetrahydro-1H-pyrrolizin-7a(5H)-yl)methoxy)pyrido [4,3-d]pyrimidin-4-yl)-2,6-diazaspiro[3.6]decan-2-yl)-2,2-difluoroethan-1-one]
> 5.30	> 5.30	N#Cc1c(N)sc2c(F)ccc(-c3c(Cl)cc4c(N5CCC6(CN(C#N)C6)C5)nc(OC[C@@]56CCCN5C[C@H](F)C6)nc4c3F)c12 [compound 182, 6-(7-(2-amino-3-cyano-7-fluorobenzo[b]thiophen-4-yl)-6-chloro-8-fluoro-2-(((2R,7aS)-2-fluorotetrahydro-1H-pyrrolizin-7a(5H)-yl)methoxy)quinazolin-4-yl)-2,6-diazaspiro[3.4] octane-2-carbonitrile]
> 5.30	> 5.30	N#Cc1c(N)sc2c(F)ccc(-c3c(Cl)cc4c(N5CCCCC6(CN(C(=O)C7CCC7F)C6)C5)nc(OC[C@@]56CCCN5C[C@H](F)C6)nc4c3F)c12 (stereo partly drawn) [compound 160, 2-amino-4-(6-chloro-8-fluoro-4-(2-(2-fluorocyclobutane-1-carbonyl)-2,6-diazaspiro[3.6]decan-6-yl)-2-(((2R,7aS)-2-fluorotetrahydro-1H-pyrrolizin-7a(5H)-yl)methoxy)quinazolin-7-yl)-7-fluorobenzo[b]thiophene-3-carbonitrile]
> 5.30	> 5.30	CC1(O)CCN(c2nc(OC[C@@]34CCCN3C[C@H](F)C4)nc3c(F)c(-c4ccc(F)c5sc(N)c(C#N)c45)c(Cl)cc23)CC2(CN(C(=O)[C@@H]3CC3(F)F)C2)C1 (stereo partly drawn) [compound 218, 2-amino-4-(6-chloro-4-(2-((S)-2,2-difluorocyclopropane-1-carbonyl)-9-hydroxy-9-methyl-2,6-diazaspiro [3.6]decan-6-yl)-8-fluoro-2-(((2R,7aS)-2-fluorotetrahydro-1H-pyrrolizin-7a(5H)-yl)methoxy)quinazolin-7-yl)-7-fluorobenzo[b]thiophene-3-carbonitrile]
> 5.30	> 5.30	C[C@H](Oc1nc(N2CCCC3(CN(C(=O)[C@@H]4C[C@H]4F)C3)C2)c2cc(Cl)c(-c3ccc(F)c4sc(N)c(C#N)c34)c(F)c2n1)[C@@H]1CCCN1C [compound 126, 2-amino-4-(6-chloro-8-fluoro-4-(2-((1S,2R)-2-fluorocyclopropane-1-carbonyl)-2,6-diazaspiro[3.5]nonan-6-yl)-2-((S)-1-((S)-1-methylpyrrolidin-2-yl)ethoxy)quinazolin-7-yl)-7-fluorobenzo[b] thiophene-3-carbonitrile]
